The subject of one test is E. coli 086. Kind of test: Metabolic labelling with KDO-N3, click chemistry, fluorescence microscopy. The format is cell-based, Escherichia coli. The conditions noted are these: KDO-N3 4 mM, 12 hours; A488-yne-Cu(I) click 60 min.
Another test concerns Shewanella oneidensis. Kind of test: Metabolic labelling with KDO-N3, click chemistry, fluorescence microscopy (negative control strain). The format is cell-based. The conditions noted are these: KDO-N3 4 mM, 12 hours, 28° C.; A488-yne-Cu(I) click 60 min.
For another test, the system named is E. coli K12. Description: Metabolic LPS labelling with KDO-N3, Cu(I) click with A488-yne, fluorescence microscopy. The format is cell-based, Escherichia coli.
Test [1] concerns Legionella pneumophila strain Paris. The format is cell-based. The conditions noted are these: KDO-N3 4 mM, 12 hours; A488-yne-Cu(I) click 60 min.
Another test deals with S. typhimurium 12023. Kind of test: Metabolic labelling with KDO-N3, click chemistry, fluorescence microscopy. The conditions noted are these: KDO-N3 4 mM, 12 hours; A488-yne-Cu(I) click 60 min. The format is cell-based, Salmonella typhimurium.
The subject of another test is Bacillus subtilis. Description: Metabolic labelling with KDO-N3, click chemistry, fluorescence microscopy (negative control strain). The format is cell-based. The conditions noted are these: Gram positive; KDO-N3 4 mM, 12 hours; A488-yne-Cu(I) click 60 min.
Another test concerns Staphylococcus aureus. Described as above. The conditions noted are these: Gram positive; KDO-N3 4 mM, 12 hours; A488-yne-Cu(I) click 60 min. The format is cell-based.
[2] abbreviates: mixture with E. coli, LB, 12 hours, 696 analyzed cells.
Where [3] appears, read: mixture with B. subtilis, LB, 12 hours, 696 analyzed cells.

In the case of `[N-]=[N+]=NC[C@@H](O)[C@@H](O)[C@H](O)[C@H](O)CC(=O)C(=O)O` [KDO-N3, 8-azido-3,8-dideoxy-D-manno-octulosonic acid], the cell-surface labeling result was “efficient and well defined cell-surface labeling” in the test with E. coli 086; “no labeling” in the test with Shewanella oneidensis; “efficient and well defined cell-surface labeling” in the test on E. coli K12 (KDO-N3 4 mM, 12 hours, A488-yne-Cu(I) click 60 min); “efficient and well defined cell-surface labeling” in [1]; “efficient and well defined cell-surface labeling” in the test on S. typhimurium 12023; “no labeling” with Bacillus subtilis. Besides, the cell-surface labeling entry with Staphylococcus aureus is given as “no labeling”. Further, the “B. subtilis false positive” value with B. subtilis (4 KDO-N3+ B. subtilis cells) is “about 2%”. Moreover, the “assimilation in B. subtilis cells of the mixture” value in the test on B. subtilis (mixture with E. coli) is given as “not in cultivable B. subtilis cells”. Besides, the “KDO-N3+ cells, mCherry − (B. subtilis)” value with B. subtilis (setting [2]) worked out at 4. Moreover, the “KDO-N3− cells, mCherry − (B. subtilis)” value in the test with B. subtilis (setting [2]) worked out at 166. Moreover, the “labeling of bacteria (fluorescence)” value with E. coli K12 ([…], click with TGTA and A488-yne, after 5 min, control without KDO-N3 no signal) is “very bright labeling”. Also, the location of fluorescence result in the test on E. coli K12 (after click labelling with A488-yne, 5 min) is given as “mostly evident around the cell periphery”. The “E. coli KDO negative” value in the test on E. coli K12 sodA-mCherry (9 cells, standard method error range about 10%) is “about 2%”. Besides, the “assimilation in E. coli cells of the mixture” value in the test on E. coli K12 sodA-mCherry (mixture with B. subtilis) was “assimilated in substantially only cultivable E. coli cells”. Further, in the test with E. coli K12 sodA-mCherry (setting [3]), the “KDO-N3+ cells, mCherry + (E. coli)” value was 517. For the same compound, the “KDO-N3− cells, mCherry + (E. coli)” value in the test on E. coli K12 sodA-mCherry (setting [3]) is reported as 9.

The record behind these values is patent US10571469B2, “Kit for labelling bacteria” (Centre National de la Recherche Scientifique (CNRS), priority 2012, dated 2020).
